According to patent publication US8686059B2, “Base and radical generator, composition using same and method for curing same” (Three Bond Co., Ltd., priority 2009, dated 2014):

Columns and labels:
[1] = Confirmation of photobase generation: pH of aqueous solution before and after 365-nm irradiation; format: physicochemical; details: 1.00 g/L aqueous solution
Procedure: An aqueous solution having a concentration of 1.00 g/L was prepared from the aminimide compound A and pure water, and 50 ml of this was put into a transparent glass-made sample bottle having an inner diameter of 38 mm and a height of 58 mm, and with stirring with a stirrer while sealed up, the pH of the aqueous solution was measured with a pH meter, Horiba Seisakusho's D54. Further kept sealed up, the sample bottle was irradiated with 365-nm active energy rays on the side thereof at a lighting intensity of 100 mW/cm^2, using a spot UV irradiator, Hamamatsu Photonics' LC8, and the pH of the solution was measured after irradiation for specified seconds. The pH before irradiation with active energy rays was 6.28; and the pH after irradiation with active energy rays for 20 seconds was 9.78; the pH after irradiation for 30 seconds was 9.90; and the pH after irradiation for 50 seconds was 10.01.

SMILES	pH before irradiation with active energy rays [1]	pH after irradiation with active energy rays for 20 seconds ([1]; 365 nm, 100 mW/cm^2, 20 seconds)	pH after irradiation for 30 seconds ([1]; 365 nm, 100 mW/cm^2, 30 seconds)	pH after irradiation for 50 seconds ([1]; 365 nm, 100 mW/cm^2, 50 seconds)	melting point
CC(O)C[N+](C)(C)[N-]C(=O)C(=O)c1ccccc1 (stereo not drawn) [Aminimide Compound A]	6.28	9.78	9.90	10.01	
COc1ccc(C(=O)C(=O)[N-][N+](C)(C)CC(C)O)cc1 (stereo not drawn) [Aminimide Compound B]					102 to 103 °C (dec.)
CC(=O)OC(C)C[N+](C)(C)[N-]C(=O)C(=O)c1ccccc1 (stereo not drawn) [Aminimide Compound D]					100 to 101 °C (dec.)
